In patent US10975082B2, “Inhibitor of FLT3 kinase and use thereof” (PRECEDO PHARMACEUTICALS CO., LTD, priority 2016, dated 2021):

How the values were obtained:
BaF3-FLT3 [ITD] = assay: Cell proliferation, Cell Titer-Glo, GI50; format: cell-based; details: Mus musculus, Ba/F3 FLT3-ITD, 72 hours
Procedure: (§1) Compounds of the invention were evaluated for their inhibitory effects on proliferation of cancer cells as well as the selectivity thereof by testing their effects on growth of cancer cells (Table 2).
(§2) Mouse BaF3-FLT3[ITD] (stably expressing FLT3[ITD] mutant activated kinase), mouse tel-BaF3-FLT3-D835Y (stably expressing FLT3[D835Y]mutant activated kinase), mouse tel-BaF3-BMX (stably expressing BMX kinase), mouse tel-FLT3-BaF3 (stably expressing FLT3 kinase), mouse BaF3-FLT3-ITD-D835Y (stably expressing FLT3[ITD+D835Y]mutant activated kinase), mouse BaF3-FLT3-ITD-F691L (stably expressing FLT3[ITD+F691L]mutant activated kinase), mouse tel-cKIT-BaF3 (stably expressing cKIT kinase), mouse BaF3-tel-cKit-N882K (stably expressing cKIT-N882K mutant activated kinase), mouse BaF3-tel-cKit-D816V (stably expressing cKIT-D816V mutant activated kinase), mouse BaF3-tel-cKit-T670I (stably expressing cKIT-T670I mutant activated kinase), mouse TPR-MET-BaF3 (stably expressing MET kinase), mouse tel-BaF3-EGFR (stably expressing EGFR kinase), mouse BaF3-FL-EGFR-L858R (stably expressing EGFR[L858R]mutant activated kinase), mouse tel-BaF3-BLK (stably expressing BLK kinase), mouse tel-JAK1-BaF3 (stably expressing JAK1 kinase) and the like were also used (see Table 2 for details). The above cell lines were all constructed by our laboratory according to the following method: the kinase region sequences of human FLT3/ITD, FLT3 D835Y, BMX, FLT3, FLT3[ITD+D835Y], FLT3[ITD+F691L], cKIT, cKIT [N882K], cKIT [D816V], cKIT [T670I], MET, EGFR, EGFR [L858R], BLK, JAK1, FLT3[K663Q], FLT3[D835V], FLT3[D835H], PDGFRa, PEGFRb, VEGFR2, JAK2, JAK3, ABL were amplified by PCR, and inserted into MSCV-Puro vectors with N-terminal TEL or TPR fragments (purchased from Clontech), respectively. The vectors were stably transfected into mouse BaF3 cells (purchased from ATCC) by means of retrovirus, and the growth factor IL-3 were removed, eventually obtaining cell lines that are transferred protein (FLT3/ITD, FLT3 D835Y, BMX, FLT3, FLT3[ITD D835Y], FLT3[ITD+F691L], cKIT, cKIT [N882K], cKIT [D816V], cKIT [T670I], MET, EGFR, EGFR [L858R], BLK, JAK1, FLT3[K663Q], FLT3[D835V], FLT3[D835H], PDGFRa, PEGFRb, VEGFR2, JAK2, JAK3, ABL)-dependent.
(§3) Then the number of viable cells was determined by quantification of ATP in living cells using Cell Titer-Glo® (Promega, the USA) Luminescent Cell Viability Assay kit and thereby GI50 was calculated.

BaF3-TEL-FLT3 = assay: Cell proliferation, Cell Titer-Glo, GI50; format: cell-based; details: Mus musculus; BaF3-TEL-FLT3, 72 hours
Procedure: as §1, §2, §3

BaF3-TEL-FLT3 [K663Q] = assay: Cell proliferation, Cell Titer-Glo, GI50; format: cell-based; details: Mus musculus, 72 hours
Procedure: as §1, §2, §3

BaF3-TEL-cKIT = assay: Cell proliferation, Cell Titer-Glo, GI50; format: cell-based; details: Mus musculus, 72 hours
Procedure: as §1, §2, §3

BaF3-TEL-FLT3 [D835Y] = assay: Cell proliferation, Cell Titer-Glo, GI50; format: cell-based; details: Mus musculus, 72 hours
Procedure: as §1, §2, §3

BaF3 = assay: Cell proliferation, Cell Titer-Glo, GI50; format: cell-based; details: Mus musculus; BaF3, 72 hours
Procedure: as §1
(§4) In this example the following cells were selected: human acute myeloid leukemia cells MV-4-11 (expressing FLT3[ITD] mutant gene), human acute myeloid leukemia cells MOLM-13 (expressing FLT3[ITD] mutant gene and wild-type FLT3 gene), human acute myeloid leukemia cells MOLM-14 (expressing FLT3[ITD] mutant gene and wild-type FLT3 gene), human acute myeloid leukemia cells OCI-AML3 (expressing FLT3[A680V] mutant gene), human acute myeloid leukemia cells U937 (expressing wild-type FLT3 gene), and mouse pro-B cells BaF3, and the above cells were purchased from ATCC.
as §3

MV-4-11 = assay: Cancer cell proliferation, Cell Titer-Glo, GI50; format: cell-based; details: Homo sapiens, MV4-11; MV-4-11, 72 hours
Procedure: as §1, §4, §3

U937 = assay: Cancer cell proliferation, Cell Titer-Glo, GI50; format: cell-based; details: Homo sapiens, U-937; U937, 72 hours
Procedure: as §1, §4, §3

MOLM-14 = assay: Cancer cell proliferation, Cell Titer-Glo, GI50; format: cell-based; details: Homo sapiens; MOLM-14, 72 hours
Procedure: as §1, §4, §3

BaF3-TEL-cKit [N882K] = assay: Cell proliferation, Cell Titer-Glo, GI50; format: cell-based; details: Mus musculus, 72 hours
Procedure: as §1, §2, §3

BaF3-FLT3 [ITD + D835Y] = assay: Cell proliferation, Cell Titer-Glo, GI50; format: cell-based; details: Mus musculus, Ba/F3 FLT3-ITD, 72 hours
Procedure: as §1, §2, §3

BaF3-TEL-FLT3 [D835V] = assay: Cell proliferation, Cell Titer-Glo, GI50; format: cell-based; details: Mus musculus, 72 hours
Procedure: as §1, §2, §3

BaF3-TEL-cKit [D816V] = assay: Cell proliferation, Cell Titer-Glo, GI50; format: cell-based; details: Mus musculus, 72 hours
Procedure: as §1, §2, §3

[1] = test system: MOLM-13, MOLM-14 and MV-4-11 cell lines; assay: Cell cycle distribution by flow cytometry (PI); format: cell-based, human; details: MOLM-13, MOLM-14 and MV-4-11, 12 or 24 hours; Compound 1 0.01-0.1 μM, AC220 0.1 μM

Row | SMILES | GI50 (BaF3-FLT3 [ITD]) | GI50 (BaF3-TEL-FLT3) | GI50 (BaF3-TEL-FLT3 [K663Q]) | GI50 (BaF3-TEL-cKIT) | GI50 (BaF3-TEL-FLT3 [D835Y]) | GI50 (BaF3) | GI50 (MV-4-11) | GI50 (U937) | GI50 (MOLM-14) | GI50 (BaF3-TEL-cKit [N882K]) | GI50 (BaF3-FLT3 [ITD + D835Y]) | GI50 (BaF3-TEL-FLT3 [D835V]) | GI50 (BaF3-TEL-cKit [D816V]) | cell cycle distribution [1]
1 | CC(C)(C)c1cc(NC(=O)Nc2ccc(-n3nc(-c4ccc(N5CCOCC5)nc4)c4c(N)ncnc43)cc2)no1 [Compound 28, 1-(4-(4-amino-3-(6-morpholinopyridin-3-yl)-1H-pyrazolo[3,4-d]pyrimidin-1-yl)phenyl)-3-(5-(tert-butyl)isoxazol-3-yl)urea] | 2 nM | 4 nM | > 10000 nM | 41 nM | 3 nM | 6900 nM | 1 nM | > 10000 nM | 2 nM |  |  |  |  | 
2 | CC(C)(C)c1cc(NC(=O)Nc2ccc(-n3nc(-c4ccc(CN5CCOCC5)cc4)c4c(N)ncnc43)cc2)no1 [Compound 23, 1-(4-(4-amino-3-(4-(morpholinomethyl)phenyl)-1H-pyrazolo[3,4-d]pyrimidin-1-yl)phenyl)-3-(5-(tert-butyl)isoxazol-3-yl)urea] |  | < 0.3 nM | 5400 nM | 12 nM | 1 nM | 5900 nM | < 0.3 nM | 4100 nM | < 0.3 nM |  |  |  |  | 
3 | CC(C)(C)c1cc(NC(=O)Nc2ccc(-n3nc(-c4ccc(NS(C)(=O)=O)cc4)c4c(N)ncnc43)cc2)no1 [Compound 27] | 1 nM | 2 nM | > 10000 nM | 120 nM | 600 nM | > 10000 nM | 0.6 nM | > 10000 nM | 1 nM | 51 nM | 600 nM | 22 nM | > 10000 nM | 
4 | CC(C)(C)c1cc(NC(=O)Nc2ccc(-n3nc(-c4cccnc4)c4c(N)ncnc43)cc2)no1 [Compound 26, 1-(4-(4-amino-3-(pyridin-3-yl)-1H-pyrazolo[3,4-d]pyrimidin-1-yl)phenyl)-3-(5-(tert-butyl)isoxazol-3-yl)urea] | 0.7 nM | 1 nM | > 10000 nM | 38 nM | 610 nM | > 10000 nM | < 0.3 nM | > 10000 nM | 1 nM | 29 nM | 610 nM | 20 nM | 7600 nM | 
5 | CCN1CCN(Cc2ccc(-c3nn(-c4ccc(NC(=O)Nc5cc(C(C)(C)C)on5)cc4)c4ncnc(N)c34)cc2)CC1 [Compound 20, 1-(4-(4-amino-3-(4-((4-ethylpiperazin-1-yl)methyl)phenyl)-1H-pyrazolo[3,4-d]pyrimidin-1-yl)phenyl)-3-(5-(tert-butyl)isoxazol-3-yl)urea] | 0.9 nM | 2 nM | 1600 nM | 40 nM | 240 nM | 2500 nM | < 0.3 nM | 1700 nM | < 0.3 nM | 9 nM | 240 nM | 8 nM | 1900 nM | 
6 | CC(C)(C)c1cc(NC(=O)Nc2ccc(-c3cn4c(n3)sc3cc(OCCN5CCOCC5)ccc34)cc2)no1 [AC220, reference compound] |  |  |  |  |  |  |  |  |  |  |  |  |  | similar

Second part, led by results:

Row | GI50 (BaF3-FLT3 [ITD]) | GI50 (BaF3-TEL-FLT3) | GI50 (BaF3-TEL-FLT3 [K663Q]) | GI50 (BaF3-TEL-cKIT) | GI50 (BaF3-TEL-FLT3 [D835Y]) | GI50 (BaF3) | GI50 (MV-4-11) | GI50 (U937) | GI50 (MOLM-14) | GI50 (BaF3-TEL-cKit [N882K]) | GI50 (BaF3-FLT3 [ITD + D835Y]) | GI50 (BaF3-TEL-FLT3 [D835V]) | GI50 (BaF3-TEL-cKit [D816V]) | SMILES | cell cycle distribution [1]
7 | 100 nM | 320 nM | 3700 nM | 3500 nM | 1300 nM | 3800 nM | 82 nM | 9200 nM | 130 nM | 3300 nM | 1300 nM | 1700 nM | 8300 nM | CN(C)CCNC(=O)Nc1ccc(-n2nc(-c3ccc(OCCN4CCOCC4)cc3)c3c(N)ncnc32)cc1 [Compound 5, 1-(4-(4-amino-3-(4-(2-morpholinoethoxy)phenyl)-1H-pyrazolo[3,4-d]pyrimidin-1-yl)phenyl)-3-(2-(dimethylamino)ethyl)urea] | 
8 | 3 nM | 12 nM | 5400 nM | 140 nM | 1600 nM | 3000 nM | 3 nM | 2400 nM | 3 nM | 96 nM | 1600 nM | 210 nM | 4000 nM | Nc1ncnc2c1c(-c1ccc(OCCN3CCOCC3)cc1)nn2-c1ccc(NC(=O)Nc2ccc(Cl)c(C(F)(F)F)c2)cc1 [Compound 12, 1-(4-(4-amino-3-(4-(2-morpholinoethoxy)phenyl)-1H-pyrazolo[3,4-d]pyrimidin-1-yl)phenyl)-3-(4-chloro-3-(trifluoromethyl)phenyl)urea] | 
9 | 1100 nM | 5400 nM | > 10000 nM | > 10000 nM | > 10000 nM | > 10000 nM | 2800 nM | > 10000 nM | 2500 nM | > 10000 nM | > 10000 nM | > 10000 nM | > 10000 nM | CC(C)CNC(=O)Nc1ccc(-n2nc(-c3ccc(OCCN4CCOCC4)cc3)c3c(N)ncnc32)cc1 [Compound 4, 1-(4-(4-amino-3-(4-(2-morpholinoethoxy)phenyl)-1H-pyrazolo[3,4-d]pyrimidin-1-yl)phenyl)-3-isobutylurea] | 
10 | 24 nM | 190 nM | > 10000 nM | 990 nM | 4400 nM | > 10000 nM | 63 nM | 8500 nM | 81 nM | 1100 nM | 4400 nM | 4500 nM | 4400 nM | CC(C)(C)c1ccc(NC(=O)Nc2ccc(-n3nc(-c4ccc(OCCN5CCOCC5)cc4)c4c(N)ncnc43)cc2)cc1 [Compound 10, 1-(4-(4-amino-3-(4-(2-morpholinoethoxy)phenyl)-1H-pyrazolo[3,4-d]pyrimidin-1-yl)phenyl)-3-(4-(tert-butyl)phenyl)urea] | 
